Results as given in patent publication US20120122820A1, “PRODRUGS AND THE USE THEREOF” (Bayer Schering Pharma Aktiengesellschaft, priority 2007, published 2012).
Values after ≈ are worked out from the molar mass of the structure shown. Counter-ions that a name gives are not always drawn. One block for each compound: values may come before it.

Key:
[1] = Determination of the solubility (24 h shaking at room temperature, ultracentrifugation, HPLC); type: physicochemical; settings: thermodynamic from solid
Description: The test substance is suspended in water or dilute hydrochloric acid (pH 4) [Examples 1-21] or in 5% strength aqueous dextrose solution [Examples 22-40]. This suspension is shaken at room temperature for 24 h. After ultracentrifugation at 224 000 g for 30 min, the supernatant is diluted with DMSO and analyzed by HPLC. A two-point calibration plot of the test compound in DMSO is used for quantification.
Agilent 1100 with DAD (G1315A), quat. pump (G1311A), autosampler CTC HTS PAL, degasser (G1322A) and column thermostat (G1316A); column: Phenomenex Gemini C18, 5 μm, 50 mm×2 mm; temperature: 40° C.; eluent A: water/phosphoric acid pH 2, eluent B: acetonitrile; flow rate: 0.7 ml/min; gradient: 0-0.5 min 85% A, 15% B; ramp 0.5-3 min 10% A, 90% B; 3-3.5 min 10% A, 90% B; ramp 3.5-4 min 85% A, 15% B; 4-5 min 85% A, 15% B.
Agilent 1100 with DAD (G1315A), quat. pump (G1311A), autosampler CTC HTS PAL, degasser (G1322A) and column thermostat (G1316A); column: VDSoptilab Kromasil 100 C18, 3.5 μm, 60 mm×2.1 mm; temperature: 30° C.; eluent A: water+5 ml of perchloric acid/liter, eluent B: acetonitrile; flow rate: 0.75 ml/min; gradient: 0-0.5 min 98% A, 2% B; ramp 0.5-4.5 min 10% A, 90% B; 4.5-6 min 10% A, 90% B; ramp 6.5-6.7 min 98% A, 2% B; 6.7-7.5 min 98% A, 2% B.

[2] = Stability in buffer at various pH values; type: physicochemical
Description: 0.3 mg of the test substance is weighed into a 2 ml HPLC vial and 0.5 ml of acetonitrile or acetonitrile/DMSO (9:1) is added. The substance is dissolved by putting the sample vessel in an ultrasonic bath for about 10 seconds. Then 0.5 ml of the respective (buffer) solution is added, and the sample is again treated in the ultrasonic bath.
• pH 4: 1 liter of Millipore water is adjusted to pH 4.0 with 1 N hydrochloric acid; • pH 5: 0.096 mol of citric acid and 0.2 mol of sodium hydroxide ad 1 liter of water; • pH 7.4: 90.0 g of sodium chloride, 13.61 g of potassium dihydrogen phosphate and 83.35 g of 1 N sodium hydroxide solution are made up to 1 liter with water; this solution is then further diluted 1:10 with Millipore water. • pH 8: 0.013 mol of borax and 0.021 mol of hydrochloric acid ad 1 liter of water.
5 μl portions of the sample solution are analyzed by HPLC for their content of unchanged test substance, and of parent substance (A) produced, every hour over a period of 24 hours at 37° C. The percentage areas of the appropriate peaks are used for quantification.
HPLC method for Examples 1-21:
Agilent 1100 with DAD (G1314A), binary pump (G1312A), autosampler (G1329A), column oven (G1316A), thermostat (G1330A); column: Kromasil 100 C18, 60 mm×2.1 mm, 3.5 μm; column temperature: 30° C.; eluent A: water+5 ml of perchloric acid/liter, eluent B: acetonitrile; gradient: 0-1.0 min 98% A, 2% B; 1.0-9.0 min 2% A, 98% B; 9.0-13.0 min 2% A, 98% B; 13.0-13.5 min 98% A, 2% B; 13.5-15.0 min 98% A, 2% B; flow rate: 0.75 ml/min; UV detection: 210 nm.
HPLC method for Examples 22-40:
The ratios of the peak areas (F) at the respective time points in relation to the peak areas at the starting time are shown in Table 3 for representative exemplary embodiments: […]

[3] = aqueous buffer, dilute hydrochloric acid (pH 4)
[4] = saline or isotonic, 5% strength aqueous dextrose solution

SMILES: N#Cc1c(N)nc(SCc2csc(-c3ccc(Cl)cc3)n2)c(C#N)c1-c1ccc(OCCOC(=O)CN)cc1 [Example 6, 2-{4-[2-Amino-6-({[2-(4-chlorophenyl)-1,3-thiazol-4-yl]methyl}thio)-3,5-dicyanopyridin-4-yl]-phenoxy}ethyl glycinate dihydrochloride]
- solubility at 24 h [1, 3]: 90 µg/mL

SMILES: N#Cc1c(N)nc(SCc2csc(-c3ccc(Cl)cc3)n2)c(C#N)c1-c1ccc(OCCOC(=O)[C@@H]2CCCN2)cc1 [Example 9, 2-{4-[2-Amino-6-({[2-(4-chlorophenyl)-1,3-thiazol-4-yl]methyl}thio)-3,5-dicyanopyridin-4-yl]-phenoxy}ethyl L-prolinate hydrochloride]
- solubility at 24 h [1, 3]: 50 µg/mL

SMILES: Cc1ccc(S(=O)(=O)[O-])cc1.N#Cc1c(N)nc(SCc2csc(-c3ccc(Cl)cc3)n2)c(C#N)c1-c1ccc(OCCOC(=O)[C@@H]2CCC[NH2+]2)cc1 [Example 10, 2-{4-[2-Amino-6-({[2-(4-chlorophenyl)-1,3-thiazol-4-yl]methyl}thio)-3,5-dicyanopyridin-4-yl]-phenoxy}ethyl L-prolinate p-toluenesulfonic acid salt]
- solubility at 24 h [1, 3]: 8 µg/mL

SMILES: N#Cc1c(N)nc(SCc2csc(-c3ccc(Cl)cc3)n2)c(C#N)c1-c1ccc(OCCOC(=O)[C@@H](N)CO)cc1 [Example 11, 2-{4-[2-Amino-6-({[2-(4-chlorophenyl)-1,3-thiazol-4-yl]methyl}thio)-3,5-dicyanopyridin-4-yl]-phenoxy}ethyl L-serinate hydrochloride]
- solubility at 24 h [1, 3]: 70 µg/mL

SMILES: N#Cc1c(N)nc(SCc2csc(-c3ccc(Cl)cc3)n2)c(C#N)c1-c1ccc(OCCOC(=O)[C@@H](N)CCCCN)cc1 [Example 14, 2-{4-[2-Amino-6-({[2-(4-chlorophenyl)-1,3-thiazol-4-yl]methyl}thio)-3,5-dicyanopyridin-4-yl]-phenoxy}ethyl L-lysinate dihydrochloride]
- % test substance after 4 h [F(t = 4 h) × 100/F(t = 0 h)] ([2]; pH 4, 37° C.): 100%
- % test substance after 24 h [F(t = 24 h) × 100/F(t = 0 h)] ([2]; pH 4, 37° C.): 100%
- % test substance after 4 h [F(t = 4 h) × 100/F(t = 0 h)] ([2]; pH 8, 37° C.): 96%
- % test substance after 24 h [F(t = 24 h) × 100/F(t = 0 h)] ([2]; pH 8, 37° C.): 76%

SMILES: N#Cc1c(N)nc(SCc2csc(-c3ccc(Cl)cc3)n2)c(C#N)c1-c1ccc(OCCOC(=O)[C@@H](N)Cc2ccccc2)cc1 [Example 16, 2-{4-[2-Amino-6-({[2-(4-chlorophenyl)-1,3-thiazol-4-yl]methyl}thio)-3,5-dicyanopyridin-4-yl]-phenoxy}ethyl L-phenylalaninate hydrochloride]
- % test substance after 4 h [F(t = 4 h) × 100/F(t = 0 h)] ([2]; pH 4, 37° C.): 100%
- % test substance after 24 h [F(t = 24 h) × 100/F(t = 0 h)] ([2]; pH 4, 37° C.): 100%
- % test substance after 4 h [F(t = 4 h) × 100/F(t = 0 h)] ([2]; pH 8, 37° C.): 100%
- % test substance after 24 h [F(t = 24 h) × 100/F(t = 0 h)] ([2]; pH 8, 37° C.): 100%

More lines, now with the values ahead:

- solubility at 24 h [1, 3]: 60 µg/mL
SMILES: CS(=O)(=O)O.N#Cc1c(N)nc(SCc2csc(-c3ccc(Cl)cc3)n2)c(C#N)c1-c1ccc(OCCOC(=O)[C@@H](N)Cc2ccccc2)cc1 [Example 18, 2-{4-[2-Amino-6-({[2-(4-chlorophenyl)-1,3-thiazol-4-yl]methyl}thio)-3,5-dicyanopyridin-4-yl]-phenoxy}ethyl L-phenylalaninate methanesulfonic acid salt]

- % test substance after 4 h [F(t = 4 h) × 100/F(t = 0 h)] ([2]; pH 4, 37° C.): 100%
- % test substance after 24 h [F(t = 24 h) × 100/F(t = 0 h)] ([2]; pH 4, 37° C.): 99%
- % test substance after 4 h [F(t = 4 h) × 100/F(t = 0 h)] ([2]; pH 7.4, 37° C.): 100%
- % test substance after 24 h [F(t = 24 h) × 100/F(t = 0 h)] ([2]; pH 7.4, 37° C.): 96%
SMILES: CC(C)[C@H](N)C(=O)OCCOc1ccc(-c2c(C#N)c(N)nc(SCc3csc(-c4ccc(Cl)cc4)n3)c2C#N)cc1 [Example 23, 2-{4-[2-Amino-6-({[2-(4-chlorophenyl)-1,3-thiazol-4-yl]methyl}thio)-3,5-dicyanopyridin-4-yl]-phenoxy}ethyl L-valinate dihydrochloride]

- % test substance after 4 h [F(t = 4 h) × 100/F(t = 0 h)] ([2]; pH 4, 37° C.): 100%
- % test substance after 24 h [F(t = 24 h) × 100/F(t = 0 h)] ([2]; pH 4, 37° C.): 99%
- % test substance after 4 h [F(t = 4 h) × 100/F(t = 0 h)] ([2]; pH 5, 37° C.): 96%
- % test substance after 24 h [F(t = 24 h) × 100/F(t = 0 h)] ([2]; pH 5, 37° C.): 74%
- solubility at 24 h [1, 4]: > 500 µg/mL
SMILES: N#Cc1c(N)nc(SCc2csc(-c3ccc(Cl)cc3)n2)c(C#N)c1-c1ccc(OCCOC(=O)[C@@H](N)CCN)cc1 [Example 24, 2-{4-[2-Amino-6-({[2-(4-chlorophenyl)-1,3-thiazol-4-yl]methyl}thio)-3,5-dicyanopyridin-4-yl]-phenoxy}ethyl (2S)-2,4-diaminobutanoate dihydrochloride]

- % test substance after 4 h [F(t = 4 h) × 100/F(t = 0 h)] ([2]; pH 4, 37° C.): 100%
- % test substance after 24 h [F(t = 24 h) × 100/F(t = 0 h)] ([2]; pH 4, 37° C.): 100%
- % test substance after 4 h [F(t = 4 h) × 100/F(t = 0 h)] ([2]; pH 7.4, 37° C.): 41%
- % test substance after 24 h [F(t = 24 h) × 100/F(t = 0 h)] ([2]; pH 7.4, 37° C.): 4%
- solubility at 24 h [1, 4]: 730 µg/mL
SMILES: N#Cc1c(NC(=O)CCCN)nc(SCc2csc(-c3ccc(Cl)cc3)n2)c(C#N)c1-c1ccc(OCCOC(=O)CCCN)cc1 [Example 25, 2-(4-{2-[(4-Aminobutanoyl)amino]-6-({[2-(4-chlorophenyl)-1,3-thiazol-4-yl]methyl}thio)-3,5-di-cyanopyridin-4-yl}phenoxy)ethyl 4-aminobutanoate dihydrochloride]

- % test substance after 4 h [F(t = 4 h) × 100/F(t = 0 h)] ([2]; pH 4, 37° C.): 100%
- % test substance after 24 h [F(t = 24 h) × 100/F(t = 0 h)] ([2]; pH 4, 37° C.): 100%
- % test substance after 4 h [F(t = 4 h) × 100/F(t = 0 h)] ([2]; pH 7.4, 37° C.): 100%
- % test substance after 24 h [F(t = 24 h) × 100/F(t = 0 h)] ([2]; pH 7.4, 37° C.): 100%
SMILES: N#Cc1c(N)nc(SCc2csc(-c3ccc(Cl)cc3)n2)c(C#N)c1-c1ccc(OCCOC(=O)CCC(=O)O)cc1 [Example 28, 2-Hydroxy-N,N,N-trimethylethanaminium 4-(2-{4-[2-amino-6-({[2-(4-chlorophenyl)-1,3-thiazol-4-yl]methyl}thio)-3,5-dicyanopyridin-4-yl]phenoxy}ethoxy) 4-oxobutanoate]

- solubility at 24 h [1, 4]: 4 µg/mL (≈ 6.47 µM)
SMILES: N#Cc1c(N)nc(SCc2csc(-c3ccc(Cl)cc3)n2)c(C#N)c1-c1ccc(OCCOC(=O)/C=C\C(=O)O)cc1 [Example 31, 2-Hydroxy-N,N,N-trimethylethanaminium (2Z)-4-(2-{4-[2-amino-6-({[2-(4-chlorophenyl)-1,3-thiazol-4-yl]methyl}thio)-3,5-dicyanopyridin-4-yl]phenoxy}ethoxy)-4-oxobut-2-enoate]

- solubility at 24 h [1, 4]: 195 µg/mL
SMILES: N#Cc1c(N)nc(SCc2csc(-c3ccc(Cl)cc3)n2)c(C#N)c1-c1ccc(OCCOC(=O)[C@@H](N)Cc2c[nH]cn2)cc1 [Example 33, 2-{4-[2-Amino-6-({[2-(4-chlorophenyl)-1,3-thiazol-4-yl]methyl}thio)-3,5-dicyanopyridin-4-yl]-phenoxy}ethyl L-histidinate dihydrochloride]

- % test substance after 4 h [F(t = 4 h) × 100/F(t = 0 h)] ([2]; pH 4, 37° C.): 100%
- % test substance after 24 h [F(t = 24 h) × 100/F(t = 0 h)] ([2]; pH 4, 37° C.): 97%
- % test substance after 4 h [F(t = 4 h) × 100/F(t = 0 h)] ([2]; pH 7.4, 37° C.): 100%
- % test substance after 24 h [F(t = 24 h) × 100/F(t = 0 h)] ([2]; pH 7.4, 37° C.): 97%
SMILES: CN(C)CC(=O)Nc1nc(SCc2csc(-c3ccc(Cl)cc3)n2)c(C#N)c(-c2ccc(OCCOC(=O)CN(C)C)cc2)c1C#N [Example 34, 2-(4-{2-({[2-(4-Chlorophenyl)-1,3-thiazol-4-yl]methyl}thio)-3,5-dicyano-6-[(N,N-dimethylglycyl)-amino]pyridin-4-yl}phenoxy)ethyl N,N-dimethylglycinate]

- % test substance after 24 h [F(t = 24 h) × 100/F(t = 0 h)] ([2]; pH 4, 37° C., dihydrochloride): 100%
- % test substance after 24 h [F(t = 24 h) × 100/F(t = 0 h)] ([2]; pH 7.4, 37° C., dihydrochloride): 98%
SMILES: CN(C)CC(=O)Nc1nc(SCc2csc(-c3ccc(Cl)cc3)n2)c(C#N)c(-c2ccc(OCCOC(=O)CN(C)C)cc2)c1C#N [Example 35, 2-(4-{2-({[2-(4-Chlorophenyl)-1,3-thiazol-4-yl]methyl}thio)-3,5-dicyano-6-[(N,N-dimethylglycyl)-amino]pyridin-4-yl}phenoxy)ethyl N,N-dimethylglycinate dihydrochloride]
